For one data set, the system named is OVCA 429 cells. The following applies: for 429: increased sensitivity to cis-platin: OVCA 429 cells with specific siRNA.
The test system of another data set is Vinexin 13 (AF037261). The experiment in a line: siRNA-mediated knockdown of gene expression. The data set is classed as cell-based, human. The note with it: OVCA 429 cells.
Data set [1] concerns OVCAR-3 cells. The experiment in a line: MTT assay, cis-platin sensitivity with siRNA. In kind it is cell-based, human. The following applies: OVCAR-3 cells with specific siRNA.
Data set [2] deals with zinc finger protein 262/MYM (AB007885). The experiment in a line: siRNA-mediated knockdown of gene expression. In kind it is cell-based, human. The note with it: OVCA 429 cells.
Another data set has as its system eIF5 (U49436). The experiment in a line: siRNA-mediated knockdown of gene expression. In kind it is cell-based, human. The note with it: OVCA 429 cell.
Data set [3] deals with OVCAR-3 cells. Kind of data set: tumor growth of OVCAR-3 cells in nude mice. In kind it is in vivo. The following applies: cis-platin 4 μg/kg IP 3 times a week for 2 weeks, then 1 week no treatment; one mouse. As for the experimental part: The following protocol was developed for examining tumor growth using OVCAR-3 cells and nude mice: OVCAR-3 cells (15 million/injection) were inoculated under upper arm region of nude mice. Visible lumps appeared after 25 days. The tumors were measurable at about 35 days after inoculation and animals were then either treated with cis-platin at 4 μg/kg body weight administered by IP injection 3 times a week for 2 weeks, followed by 1 week with no treatment or treated with saline solution alone as control. […] A photograph of the tumors before and after cis-platin treatment is also shown.

Values joined by “and” are separate entries in the source; they are usually repeats but may differ in a detail not shown here. Identical values can stand only once. Like-named read-outs stand apart in the source and are kept apart here.

For “Vinexin β siRNA #2: siRNA to Vinexin (AF037261); target sequence AAGAGTTACCTAGAAGCACCT (guide AAGAGTTACCTAGAAGCACCT; target site or template, no part of the molecule; listed as DNA, chemistry not given here; listed as Homo Sapiens)”, the “429: increased sensitivity to cis-platin” value in the data set with OVCA 429 cells is on record as “no”. Further, in the data set with Vinexin 13 (AF037261), the “reduction of Vinexin mRNA levels compared to control” value is “approximately 50%”. Also, the “OVCAR-3: increased sensitivity to cis-platin” value (“OVCAR-3: increased sensitivity” below) with OVCAR-3 cells [1] is recorded as “yes”.
Take “Zinc finger protein 262/MYM siRNA #3: siRNA to zinc finger protein 262/MYM; target sequence AAAATATGGGAACCTACAATA (guide AAAATATGGGAACCTACAATA; target site or template, no part of the molecule; listed as DNA, chemistry not given here; listed as Homo Sapiens)”: the “429: increased sensitivity to cis-platin” value in the data set on OVCA 429 cells is listed as “yes”. Besides, the “OVCAR-3: increased sensitivity” value in the data set with OVCAR-3 cells [1] is recorded as “yes”. Also, the “reduction of zinc finger protein 262/MYM mRNA levels compared to control” value in data set [2] is “approximately 45%”.
As to “eIF5 siRNA #1: siRNA to eIF5; target sequence AATGACCGTTACATTGTCAAT (guide AATGACCGTTACATTGTCAAT; target site or template, no part of the molecule; listed as DNA, chemistry not given here; listed as Homo Sapiens)”, in the data set on eIF5 (U49436), the “reduction of eIF5 mRNA levels compared to control” value is “approximately 59%”. For the same molecule, in the data set on OVCA 429 cells, the “429: increased sensitivity to cis-platin” value is reported as “yes”. Moreover, the “OVCAR-3: increased sensitivity” value in the data set on OVCAR-3 cells [1] is listed as “yes”.
Broadly, the IC50 is the concentration needed to halve the response being measured. `N.N.[Cl][Pt][Cl]` [cis-platin]: the IC50 was approximately 100 µM in the data set with OVCA 429 cells (read-out: IC50 of cis-platin alone, OVCA 429, 4 hours exposure (FIG. 40)); 25 to 50 µM and 25 µM and ~25 µM in the data set on OVCA 429 cells (read-out: IC50 of cis-platin, controls without specific siRNA or inhibitor, OVCA 429, 24 hour exposure, siPORT only or sense strand only). The tumor size result in the data set on OVCAR-3 cells [3] is recorded as “stabilization of the tumor size”.
